# Laboratory results taken from patent US20140031288A1, “NOVEL COMPOSITION FOR TUMOR GROWTH CONTROL” (Erasmus University Medical Center, priority 2006, published 2014).
# Columns and labels:
# [1] = test system: human BON carcinoid tumor cells; assay: Cell proliferation assay (total DNA content, Hoechst 33258); assay type: cell-based; details: for effect on BON carcinoid cell growth, measured as DNA content: 10^−8M, drug alone
# Method: (§1) Human pancreatic carcinoid BON cells were obtained from Dr Townsend (The University of Texas Medical Branch, Galveston, Tex., USA). The cells were cultured in a humidified incubator containing 5% CO2 at 37° C. The culture medium consisted of a 1:1 mixture of Dulbecco's modified Eagle's medium (DMEM) and F12K medium, supplemented with 10% FCS, penicillin (1×105 U/l), fungizone (0.5 mg/l) and 1-glutamine (2 mmol/l). Periodically, cells were confirmed as Mycoplasma-free. Cells were harvested with trypsin EDTA 10% and resuspended in medium. Before plating, cells were counted microscopically using a standard hemocytometer. Trypan Blue staining was used to assess cell viability, which always exceeded 95%. Media and supplements were obtained from GIBCO Bio-cult Europe (Invitrogen, Breda, The Netherlands).
# After trypsinization, the cells were plated in 1 ml of medium in 24-well plates at a density of 0.4-2×10^4 cells/well. The plates were then placed in a 37° C., 5% CO2 incubator. Three days later the cell culture medium was replaced with 1 ml/well medium containing 5-aza-2′-deoxycytidine at different concentrations in the dose curve response experiment (0, 10^−5M, 10^−6M, 10^−7M, 10^−8M and 10^−9M) or 5-aza-2′-deoxycytidine (5×10^−8M) with or without the somatostatin analog octreotide (10^−8M) or the dopamine agonist cabergoline (10^−8M). In experiments evaluating the combination of 5-aza-2′-deoxycytidine and octreotide or cabergoline, a pre-treatment with 5-aza-2′-deoxycytidine (5×10^−8M) has been performed for 24 hours.
# Plates were further incubated at 37° C. and 5% CO2. After 3 and 6 days of treatment cells were harvested for DNA measurement. Plates for 6 days were refreshed after 3 days and compounds were added again. Quadruplicates of each treatment were performed. Measurement of total DNA-contents, representative for the number of cells, was performed using the bisbenzimide fluorescent dye (Hoechst™ 33258) (Boehring Diagnostics, La Jolla, Calif.), as previously described (Hofland L J, van Koetsveld P M, Lamberts S W. Percoll density gradient centrifugation of rat pituitary tumor cells: a study of functional heterogeneity within and between tumors with respect to growth rates, prolactin production and responsiveness to the somatostatin analog SMS 201-995. Eur J Cancer 1990; 26:37-44.).
# [2] = test system: human BON carcinoid cells; assay: Apoptosis assay (DNA fragmentation, Cell Death Detection ELISA); assay type: cell-based; details: for effect on apoptosis, measured as DNA fragmentation, drug alone: 10^−8M
# Method: as §1, with “Trypan Blue staining was used to assess cell viability, which always exceeded 95%.” left out
# After trypsinization BON cells were plated in 24-well plates at a density of 1.5-2×10^4 cells/well. These plates were placed in a 37° C., 5% CO2 incubator. Three days later the medium was refreshed in the presence and absence (control group) of 5-aza-2′-deoxycytidine at different concentrations in the dose curve response experiment (10^−5M, 10^−6M, 10^−7M, 10^−8M and 10^−9M) or 5-aza-2′-deoxycytidine (5×10^−8M) with or without the somatostatin analog octreotide (10^−8M) or the dopamine agonist cabergoline (10^−8M).
# Quadruplicates of each treatment were performed. After an additional incubation of 3 days, apoptosis was assessed using a commercially available ELISA kit (Cell Death Detection ELISAPlus, Roche Diagnostic GmbH, Penzberg, Germany). This assay is based on a quantitative sandwich-enzyme-immunoassay-principle, using mouse monoclonal antibodies directed against DNA and histones, respectively. This allows the specific determination of mono- and oligo-nucleosomes in the cytoplasmatic fraction of cell lysate, typical for apoptosis. The standard protocol supplied by the manufacturer was used. Briefly, the medium was carefully removed by suction, cells were incubated in 100 μl of lysis buffer (provided with the Cell Death Detection ELISAPlus assay). After lysis of the cells the solution was incubated with anti-DNA and anti-histone antibodies in a streptavidin-coated 96-well plate for 2 hours. After washing, the immunocomplex-bound peroxidase was probed with 2,2′-azino-di[3-ethylbenzthiazoline sulfonate] (a chromogenic substrate) for spectrophotometric detection at 405 nm, to quantify the amount of nucleosomes bound to the plate. Relative apoptosis was determined by a ratio of the average absorbance of the treatment wells to the average absorbance of the control wells.
SMILES,"inhibition of BON carcinoid cell growth, dose curve ([1]; 3 or 6 day incubation, 10^−9M to 10^−5M, data not shown)","inhibition of BON carcinoid cell growth at low dose ([1]; 5×10^−8M, 6 days, p<0.001 vs control)",IC25 value of the tumor cell growth inhibitory effect ([1]; after 6 days of incubation),"induction of DNA fragmentation ([2]; 5×10^−8M, 3 days, p<0.001 vs control)","induction of DNA fragmentation, dose curve ([2]; 3 day incubation, 10^−9M to 10^−5M, data not shown)","effect of AZA alone on DNA fragmentation (FIG. 3, FIG. 4) ([2]; AZA (5 nM) alone)",EC25 value of the apoptosis inducing effect ([2]; after 3 days of incubation),"effect on BON carcinoid cell growth, measured as DNA content ([1]; 3 or 6 day incubation)","effect on apoptosis, measured as DNA fragmentation, drug alone ([2]; 3 day incubation)"
Nc1ncn([C@H]2C[C@H](O)[C@@H](CO)O2)c(=O)n1 [5-aza-2′-deoxycytidine],time- and dose-dependent manner,significantly inhibited,approximately 5×10^−8 M,approximately 100%,dose-dependent manner,moderate effect,approximately 5×10^−8 M,,
C[C@@H](O)[C@@H]1NC(=O)[C@H](CCCCN)NC(=O)[C@@H](Cc2c[nH]c3ccccc23)NC(=O)[C@H](Cc2ccccc2)NC(=O)[C@@H](NC(=O)[C@H](N)Cc2ccccc2)CSSC[C@@H](C(=O)N[C@H](CO)[C@@H](C)O)NC1=O [octreotide],,,,,,,,no statistically significant effect,no statistically significant effect
C=CCN1C[C@H](C(=O)N(CCCN(C)C)C(=O)NCC)C[C@@H]2c3cccc4[nH]cc(c34)C[C@H]21 [cabergoline],,,,,,,,no statistically significant effect,no statistically significant effect
